According to patent EP0147194B1 (Hosobuchi, Yoshio, priority 1983, dated 1989):
Where two headings read alike, the source gives them in different places.

Assays:
[1] = test system: neurologic deficits secondary to cerebral ischemia; conditions: cited from earlier work
[2] = test system: neurologic deficits produced by unilateral carotid ligation; conditions: cited from earlier work
[3] = test system: acute focal cerebral ischemia; design: species or system cats; conditions: in vivo, ip
[4] = test system: analgesic response; conditions: cited from earlier work

## CN1CC[C@]23c4c5ccc(O)c4O[C@H]2[C@@H](O)C=C[C@H]3[C@H]1C5 [morphine]
[1]; in vivo
  neurologic deficits secondary to cerebral ischemia: exacerbates them

## C=CCN1CC[C@]23c4c5ccc(O)c4O[C@H]2C(=O)CC[C@@]3(O)[C@H]1C5 [naloxone, 17 - allyl - 4,5a - epoxy - 3,14 - dihydroxymorphinan - 6 - one]
[2]; gerbils, temporary carotid occlusion, Levy et al. (1982)
  neurologic function and infarct size: did not produce improved neurologic function or alter infarct size
[2]; gerbils, intraperitoneal administration, Science 215:69-71 (1982)
  neurologic deficits produced by unilateral carotid ligation: can be reversed
[2]; several different models of stroke in gerbils, Holaday and D'Amato (1982)
  survival and neurologic function: no beneficial effect
[1]; man, Lancet 2:272-275 (1981)
  neurologic deficits secondary to cerebral ischemia: can reverse neurologic deficits
[3]
  prolonging survival (mortality as a function of time following the cerebral artery occlusions): prolonged survival

## O=C1CC[C@@]2(O)[C@H]3Cc4ccc(O)c5c4[C@@]2(CCN3CC2CC2)[C@H]1O5 [naltrexone]
[3]
  prolonging survival (mortality as a function of time following the cerebral artery occlusions): prolonged survival

## Dynorphin: opioid peptide first isolated from pituitary glands; natural compound's full 17 amino acid sequence
[4]; mice
  analgesic potency: little or no analgesic potency
[4]; morphine-tolerant animals / tolerant hosts
  effect on narcotic analgesia in tolerant animals: potentiates the analgetic effect of both morphine and β-endorphin
[4]; naive animals, analgesic response to morphine and β-endorphin / narcotic analgesics
  effect on narcotic analgesia in naive animals: inhibits, or antagonizes, the analgesic response to both morphine and β-endorphin
